Reference: patent US9987278B2, “Pharmaceutical composition for treating FLT3 mutation-positive cancer, mutant FLT3 inhibitor and uses thereof” (FUJIFILM Corporation, priority 2014, dated 2018)

Biological target: mutant FLT3 protein (FLT3 D835Y) (Homo sapiens (Human), UniProt P36888, D835Y)
Assay: Mutant FLT3 (FLT3 D835Y) enzyme inhibition assay
Type: biochemical
Conditions: ATP 15 μmol/L, read-out: IC50 value for an enzymatic activity of a mutant FLT3 protein

SMILES	IC50 [nM]
C=CC(=O)NCCNc1cccc(NC(=O)c2cnc(NCCc3ccncc3)nc2NCCC)c1 [Compound 15]	1 to 10
C=CC(=O)N[C@@H](C)C(=O)Nc1cccc(NC(=O)c2cnc(NCCc3ccncc3)nc2NCCC)c1 [Compound 16]	< 1
C=CC(=O)NCCOc1cccc(NC(=O)c2cnc(NCCc3ccncc3)nc2NCCC)c1 [Compound 6]	1 to 10
C=CC(=O)NCC(=O)Nc1cccc(CNC(=O)c2cnc(NCCc3ccncc3)nc2NCCC)c1 [Compound 1]	1 to 10
CCCNc1nc(NCCc2ccncc2)ncc1C(=O)Nc1cccc(NC(=O)CNC(=O)/C=C/CN2CCN(C)CC2)c1 [Compound 12]	1 to 10
CCCNc1nc(NCCc2ccncc2)ncc1C(=O)Nc1cccc(NC(=O)CNC(=O)/C=C/CN2CCN(CCO)CC2)c1 [Compound 14]	< 1
C=CC(=O)N(C)CC(=O)Nc1cccc(NC(=O)c2cnc(NCCc3ccncc3)nc2NCCC)c1 [Compound 10]	< 1
C=CC(=O)NCC(=O)N(C)c1cccc(NC(=O)c2cnc(NCCc3ccncc3)nc2NCCC)c1 [Compound 11]	1 to 10

Second part, the compound after the results:

IC50 [nM]	SMILES
< 1	CCCNc1nc(Nc2ccc3cnccc3c2)ncc1C(=O)Nc1cccc(NC(=O)[C@H](C)N(C)C(=O)/C=C/CN(C)C)c1 [Compound 28]
< 1	C[C@@H](C(=O)Nc1cccc(C#Cc2cnc(NCCc3ccncc3)nc2N2CCOCC2)c1)N(C)C(=O)/C=C/CN(C)C [Compound 36]
1 to 10	CCCNc1nc(Nc2cccc(C#N)c2)ncc1C#CCCCNC(=O)[C@H](C)N(C)C(=O)/C=C/CN(C)C [Compound 33]
< 1	CCCNc1nc(Nc2ccc(C(N)=O)cc2)ncc1C(=O)Nc1cccc(NC(=O)[C@H](C)N(C)C(=O)/C=C/CN2CC(O)C2)c1 [Compound 32]
< 1	CCCNc1nc(Nc2ccc(C(N)=O)cc2)ncc1C(=O)NC1CCCC(NC(=O)CN(C)C(=O)/C=C/CN(C)C)C1 (centres unmarked) [Compound 26]
< 1	CCCNc1nc(Nc2cccc(F)c2)ncc1C#C[C@H]1C[C@@H](NC(=O)[C@H](C)N(C)C(=O)/C=C/CN(C)C)C1 [Compound 39]
< 1	CCCNc1nc(Nc2ccc(C(N)=O)cc2)ncc1C(=O)NCCCNC(=O)[C@H](C)N(C)C(=O)/C=C/CN(C)C [Compound 25]
< 1	CCCNc1nc(Nc2ccc(C(N)=O)cc2)ncc1C(=O)Nc1cccc(NC(=O)[C@H](C)N(C)C(=O)/C=C/CN(C)C)c1 [Compound 27]
< 1	CCCNc1nc(NCCc2ccncc2)ncc1C(=O)Nc1cccc(NC(=O)CNC(=O)/C=C/CN2CC(C)NC(C)C2)c1 (centres unmarked) [Compound 21]
< 1	CCCNc1nc(NCCc2ccncc2)ncc1C(=O)Nc1cccc(NC(=O)[C@H](C)N(C)C(=O)/C=C/CN(C)C)c1 [Compound 30]
< 1	CCCNc1nc(Nc2cccc(F)c2)ncc1C#CCCCNC(=O)[C@H](C)N(C)C(=O)/C=C/CN(C)C [Compound 34]
< 1	C=CC(=O)NCC(=O)NC(CC)CCNC(=O)c1cnc(NCCc2ccncc2)nc1NCCC (centres unmarked) [Compound 17]

Tested on: 32D FLT3/FL cells
Assay: Cell growth assay, FLT3/FLT3 ligand-coexpressing 32D cell line
Type: cell-based
Conditions: Mus musculus, 48 h, FLT3/FL, 2 days with compound, read-out: GI50 value for growth of FLT3 protein-expressing 32D cells
Description: RPMI1640 and DMEM were purchased from Life Technologies or SIGMA. The 32D cells were obtained from RIKEN Bioresource Center, and cultured in the presence of 5% CO2 at 37° C. using an RPMI1640 medium containing 1 ng/mL mouse IL-3, 10% fetal bovine serum (FBS), 100 U/mL penicillin and […] streptomycin. The PLAT-E cells were kindly provided by Dr. Kitamura Toshio of Tokyo University and cultured in a DMEM medium containing 1 μg/mL puromycin, 10 μg/mL blasticidin S, 10% FBS, 100 U/mL penicillin and […] streptomycin. […] A pGEM-T vector, FuGENE6 and CellTiter 96 AQueous One Solution Cell Proliferation Assay were purchased from Promega Corporation.
(§1) Individual cells were seeded onto a 96-well plate (Becton, Dickinson and Company) at a density of 1000 to 10000 cells/well, and the cell culture was started at 37° C. in the presence of 5% CO2. On the next day, the compound diluted in 3-fold common ratio was added to each well, followed by further culturing for 2 days. Then, in order to evaluate the cell viability, a CellTiter 96 AQueous One SolutionReagent was added to each well according to the Promega Corporation's protocol, followed by culturing for 1 hour. […] In a case where the absorbance is insufficient, the absorbance was measured after performing the culturing for another 1 to 2 hours.

SMILES	GI50 [nM]
CCCNc1nc(Nc2cccc(F)c2)ncc1C#C[C@H]1C[C@@H](NC(=O)[C@H](C)N(C)C(=O)/C=C/CN(C)C)C1 [Compound 39]	< 1

Same assay, conditions: Mus musculus, 48 h, read-out: GI50 value for growth of FLT3 protein-expressing 32D cells

SMILES	GI50 [nM]
CNC(=O)c1cc(Oc2ccc(NC(=O)Nc3ccc(Cl)c(C(F)(F)F)c3)cc2)ccn1 [Reference Compound 2, Sorafenib, reference compound]	10 to 100

Tested on: 32D FLT3 D835Y cells
Assay: Cell growth assay, 32D FLT3 D835Y
Type: cell-based
Conditions: Mus musculus, 48 h, FLT3 D835Y, 2 days with compound, read-out: GI50 value for growth of FLT3 protein-expressing 32D cells
Description: (§2) After the virus-containing culture supernatant was added to the mouse hematopoietic precursor cell line 32D cells in the presence of 10 μg/mL polybrene, and the cells were cultured in the presence of 0.5 ng/mL mouse IL-3.
as §1

SMILES	GI50 [nM]
CCCNc1nc(Nc2cccc(F)c2)ncc1C#C[C@H]1C[C@@H](NC(=O)[C@H](C)N(C)C(=O)/C=C/CN(C)C)C1 [Compound 39]	1 to 10

Same assay, conditions: Mus musculus, 48 h, read-out: GI50 value for growth of FLT3 protein-expressing 32D cells

SMILES	GI50 [nM]
CNC(=O)c1cc(Oc2ccc(NC(=O)Nc3ccc(Cl)c(C(F)(F)F)c3)cc2)ccn1 [Reference Compound 2, Sorafenib, reference compound]	> 100

Tested on: 32D FLT3 D835V cells
Assay: Cell growth assay, 32D FLT3 D835V
Type: cell-based
Conditions: Mus musculus, 48 h, FLT3 D835V, 2 days with compound, read-out: GI50 value for growth of FLT3 protein-expressing 32D cells
Description: as §2, §1

SMILES	GI50 [nM]
CCCNc1nc(Nc2cccc(F)c2)ncc1C#C[C@H]1C[C@@H](NC(=O)[C@H](C)N(C)C(=O)/C=C/CN(C)C)C1 [Compound 39]	1 to 10

Same assay, conditions: Mus musculus, 48 h, read-out: GI50 value for growth of FLT3 protein-expressing 32D cells

SMILES	GI50 [nM]
CNC(=O)c1cc(Oc2ccc(NC(=O)Nc3ccc(Cl)c(C(F)(F)F)c3)cc2)ccn1 [Reference Compound 2, Sorafenib, reference compound]	> 100

Tested on: 32D FLT3 D835H cells
Assay: Cell growth assay, 32D FLT3 D835H
Type: cell-based
Conditions: Mus musculus, 48 h, FLT3 D835H, 2 days with compound, read-out: GI50 value for growth of FLT3 protein-expressing 32D cells
Description: as §2, §1

SMILES	GI50 [nM]
CCCNc1nc(Nc2cccc(F)c2)ncc1C#C[C@H]1C[C@@H](NC(=O)[C@H](C)N(C)C(=O)/C=C/CN(C)C)C1 [Compound 39]	1 to 10

Same assay, conditions: Mus musculus, 48 h, read-out: GI50 value for growth of FLT3 protein-expressing 32D cells

SMILES	GI50 [nM]
CNC(=O)c1cc(Oc2ccc(NC(=O)Nc3ccc(Cl)c(C(F)(F)F)c3)cc2)ccn1 [Reference Compound 2, Sorafenib, reference compound]	> 100

Tested on: 32D FLT3 D835E cells
Assay: Cell growth assay, 32D FLT3 D835E
Type: cell-based
Conditions: Mus musculus, 48 h, FLT3 D835E, 2 days with compound, read-out: GI50 value for growth of FLT3 protein-expressing 32D cells
Description: as §2, §1

SMILES	GI50 [nM]
CCCNc1nc(Nc2cccc(F)c2)ncc1C#C[C@H]1C[C@@H](NC(=O)[C@H](C)N(C)C(=O)/C=C/CN(C)C)C1 [Compound 39]	< 1

Same assay, conditions: Mus musculus, 48 h, read-out: GI50 value for growth of FLT3 protein-expressing 32D cells

SMILES	GI50 [nM]
CNC(=O)c1cc(Oc2ccc(NC(=O)Nc3ccc(Cl)c(C(F)(F)F)c3)cc2)ccn1 [Reference Compound 2, Sorafenib, reference compound]	10 to 100

Tested on: 32D FLT3 D835N cells
Assay: Cell growth assay, 32D FLT3 D835N
Type: cell-based
Conditions: Mus musculus, 48 h, FLT3 D835N, 2 days with compound, read-out: GI50 value for growth of FLT3 protein-expressing 32D cells
Description: as §2, §1

SMILES	GI50 [nM]
CCCNc1nc(Nc2cccc(F)c2)ncc1C#C[C@H]1C[C@@H](NC(=O)[C@H](C)N(C)C(=O)/C=C/CN(C)C)C1 [Compound 39]	< 1

Same assay, conditions: Mus musculus, 48 h, read-out: GI50 value for growth of FLT3 protein-expressing 32D cells

SMILES	GI50 [nM]
CNC(=O)c1cc(Oc2ccc(NC(=O)Nc3ccc(Cl)c(C(F)(F)F)c3)cc2)ccn1 [Reference Compound 2, Sorafenib, reference compound]	10 to 100

Tested on: 32D FLT3 D835Ins cells
Assay: Cell growth assay, 32D FLT3 D835Ins
Type: cell-based
Conditions: Mus musculus, 48 h, FLT3 D835Ins (I836 to leucine and aspartic acid), 2 days with compound, read-out: GI50 value for growth of FLT3 protein-expressing 32D cells
Description: as §2, §1

SMILES	GI50 [nM]
CCCNc1nc(Nc2cccc(F)c2)ncc1C#C[C@H]1C[C@@H](NC(=O)[C@H](C)N(C)C(=O)/C=C/CN(C)C)C1 [Compound 39]	< 1

Same assay, conditions: Mus musculus, 48 h, read-out: GI50 value for growth of FLT3 protein-expressing 32D cells

SMILES	GI50 [nM]
CNC(=O)c1cc(Oc2ccc(NC(=O)Nc3ccc(Cl)c(C(F)(F)F)c3)cc2)ccn1 [Reference Compound 2, Sorafenib, reference compound]	10 to 100

Tested on: 32D FLT3 Y842C cells
Assay: Cell growth assay, 32D FLT3 Y842C
Type: cell-based
Conditions: Mus musculus, 48 h, FLT3 Y842C, 2 days with compound, read-out: GI50 value for growth of FLT3 protein-expressing 32D cells
Description: as §2, §1

SMILES	GI50 [nM]
CCCNc1nc(Nc2cccc(F)c2)ncc1C#C[C@H]1C[C@@H](NC(=O)[C@H](C)N(C)C(=O)/C=C/CN(C)C)C1 [Compound 39]	1 to 10

Same assay, conditions: Mus musculus, 48 h, read-out: GI50 value for growth of FLT3 protein-expressing 32D cells

SMILES	GI50 [nM]
CNC(=O)c1cc(Oc2ccc(NC(=O)Nc3ccc(Cl)c(C(F)(F)F)c3)cc2)ccn1 [Reference Compound 2, Sorafenib, reference compound]	> 100

Tested on: 32D FLT3 Y842H cells
Assay: Cell growth assay, 32D FLT3 Y842H
Type: cell-based
Conditions: Mus musculus, 48 h, FLT3 Y842H, 2 days with compound, read-out: GI50 value for growth of FLT3 protein-expressing 32D cells
Description: as §2, §1

SMILES	GI50 [nM]
CCCNc1nc(Nc2cccc(F)c2)ncc1C#C[C@H]1C[C@@H](NC(=O)[C@H](C)N(C)C(=O)/C=C/CN(C)C)C1 [Compound 39]	1 to 10

Same assay, conditions: Mus musculus, 48 h, read-out: GI50 value for growth of FLT3 protein-expressing 32D cells

SMILES	GI50 [nM]
CNC(=O)c1cc(Oc2ccc(NC(=O)Nc3ccc(Cl)c(C(F)(F)F)c3)cc2)ccn1 [Reference Compound 2, Sorafenib, reference compound]	> 100
